Experimental data reported in BindingDB's records for doi:10.1016/j.chembiol.2004.10.013 (University of Dundee, 2005).
*1 amine or outer side, *2 acyl side, *3 side chain or, on linkers, in order; H or OH if unused. Where a SMILES comes first, the peptide text is derived from it. Side-chain parts run from the residue outwards. [ ]: non-standard residue; d: D form. βAsp = O=C(O)[C@H](CC(=O)[*:2])N[*:1]; NMeF = CN[C@@H](Cc1ccccc1)C(=O)O; CO = O=C([*:1])[*:2]

Experiments:
Experiment in all cases: Enzyme Inhibition Assay
Endochitinase B1 [R301K] = Endochitinase B1 [R301K] (Aspergillus fumigatus, UniProt Q873X9, R301K)
Chitinase B = target: T1, Chitinase B (Serratia marcescens, UniProt P11797); conditions: pH 5.5; 37 °C
T1 sequence (P11797 whole entry): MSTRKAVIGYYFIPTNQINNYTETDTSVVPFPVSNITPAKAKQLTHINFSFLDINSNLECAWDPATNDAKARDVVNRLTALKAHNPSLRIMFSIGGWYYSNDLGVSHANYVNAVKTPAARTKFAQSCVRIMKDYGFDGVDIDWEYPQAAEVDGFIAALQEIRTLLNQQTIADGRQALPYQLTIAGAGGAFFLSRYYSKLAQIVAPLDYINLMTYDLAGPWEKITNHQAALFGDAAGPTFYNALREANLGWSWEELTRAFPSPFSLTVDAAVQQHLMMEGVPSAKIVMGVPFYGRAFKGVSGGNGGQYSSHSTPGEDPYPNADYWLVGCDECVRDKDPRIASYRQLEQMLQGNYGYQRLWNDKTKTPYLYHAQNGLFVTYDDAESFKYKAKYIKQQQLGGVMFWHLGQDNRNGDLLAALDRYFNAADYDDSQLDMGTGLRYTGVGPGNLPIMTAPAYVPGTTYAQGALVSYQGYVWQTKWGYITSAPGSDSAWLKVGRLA

Endochitinase B1 = Endochitinase B1 (Aspergillus fumigatus, UniProt Q873X9); conditions: for IC50: pH 5.5, 37 °C
Endochitinase B1 [E322A] = Endochitinase B1 [E322A] (Aspergillus fumigatus, UniProt Q873X9, E322A)
Endochitinase B1 [M243A] = Endochitinase B1 [M243A] (Aspergillus fumigatus, UniProt Q873X9, M243A)
Endochitinase B1 [T138A] = Endochitinase B1 [T138A] (Aspergillus fumigatus, UniProt Q873X9, T138A)
Endochitinase B1 [D175A] = Endochitinase B1 [D175A] (Aspergillus fumigatus, UniProt Q873X9, D175A)
Endochitinase B1 [Y245F] = Endochitinase B1 [Y245F] (Aspergillus fumigatus, UniProt Q873X9, Y245F)
Endochitinase B1 [A217G] = Endochitinase B1 [A217G] (Aspergillus fumigatus, UniProt Q873X9, A217G)

Row | SMILES | Kd (Endochitinase B1 [R301K]) [µM] | Ki (Chitinase B) [µM] | Kd (Endochitinase B1) [µM] | IC50 (Endochitinase B1) [µM] | Kd (Endochitinase B1 [E322A]) [µM] | Kd (Endochitinase B1 [M243A]) [µM] | Kd (Endochitinase B1 [T138A]) [µM] | Kd (Endochitinase B1 [D175A]) [µM] | Kd (Endochitinase B1 [Y245F]) [µM] | Kd (Endochitinase B1 [A217G]) [µM]
1 | CC(=O)NC(=N)NCCC[C@@H]1NC(=O)[C@H](CCCC(=O)O)NC(=O)[C@H](Cc2c[nH]cn2)N2C(=O)[C@H](C[C@H]2O)NC(=O)[C@H]2CCCN2C1=O [4-[(1S,4R,10S,13S,16S,18R)-10-{3-[(acetamidomethanimidoyl)amino]propyl}-18-hydroxy-16-(1H-imidazol-4-ylmethyl)-3,9,12,15,20-pentaoxo-2,8,11,14,17-pentaazatricyclo[15.2.1.0^{4,8}]icosan-13-yl]butanoic acid] | 1.02 | 0.02 | 0.81 | 0.5 | 2.93 | 9.39 | 3.04 | 3.6 | 5.57 | 2.84
2 | CNC(=O)NC(=N)NCCC[C@@H]1NC(=O)[C@@H](C)NC(=O)C[C@@H](C(=O)O)NC(=O)C[C@@H](C(=O)O)NC(=O)[C@H](Cc2ccccc2)N(C)C1=O [(2R,5S,8S,11S,15S)-8-benzyl-2,7-dimethyl-5-[3-({[(methylcarbamoyl)amino]methanimidoyl}amino)propyl]-3,6,9,13,17-pentaoxo-1,4,7,10,14-pentaazacycloheptadecane-11,15-dicarboxylic acid] (cyclo([NMeF][βAsp][βAsp][dA]R([CO-NHMe]))) | 2.16 | 33 | 0.46 | 1.1 | 1.37 | 1.73 | 1.21 | 3.81 | – | 4.24
